In US11155567B2, “Sting agonist compounds and methods of use” (Mersana Therapeutics, Inc., priority 2019, dated 2021):

Molecular target: T1, R232 hSTING variant (Homo sapiens, UniProt Q86WV6, H232R)
T1 construct: expressed in transfected cells; host or cells: THP1-Dual KI-hSTING-R232 cells, generated from THP1-Dual KO-STING cells
Test: IRF3 reporter induction in THP1-Dual KI-hSTING-R232 Cells
Assay type: cell-based
Conditions: THP1-Dual KI-hSTING-R232 Cells (R232 Haplotype)
Method: (§1) THP1-Dual™ Human Monocytes cells with the homozygous HAQ allele, known to be a natural variant allele of STING occurring in 20% of the human population (Invivogen) have been engineered with two independent gene reporter systems: a secreted embryonic alkaline phosphatase (SEAP) reporter gene for NFkB activity, and secreted luciferase reporter for […] (IRF3) activity were used. 4×10^5 THP1-Dual™ cells were incubated with test Compounds in a 5-fold titration steps from 1 to 0.0128 μM in RPMI media with 10% FBS, for 24 hours at 37° C. with 5% CO2. Cell culture supernatants (20 μl) from each incubated sample was added to resuspended QUANTI-Blue™ Solution (Invivogen, 180 μl) in each well of a flat-bottom 96-well plate, then incubated for 2 h. NFkB levels were evaluated using a spectrophotometer at 620-655 nm.
(§2) To evaluate IRF3 reporter levels, cell culture supernatant (20 μl) from each incubated sample was added to QUANTI-Luc™ assay solution (Invivogen, 50 μl), and the luminescence was measured with a SpectraMax M3 spectrophotometer (Molecular Devices).
(§3) NFkB and IRF3 reporter levels were also determined for THP1-Dual™ KI-hSTING-H232 Cells and THP1-Dual™ KI-hSTING-R232 Cells. THP1-Dual™ KI-hSTING-H232 Cells (R232H Haplotype) were generated from THP1-Dual™ KO-STING cells by knockin of the intronless coding sequence (from the ATG to TGA) of the R232H human STING variant (Invivogen). R232H has been identified as a natural variant allele of STING occurring in ˜14% of the human population. THP1-Dual™ KI-hSTING-R232 Cells (R232 Haplotype) were generated from THP1-Dual™ KO-STING cells by knockin of the intronless coding sequence (from the ATG to the TGA) of the R232 hSTING variant. Genomic studies indicate that this variant, which contains an arginine at position 232 (R232), is the most prevalent variant with an occurrence (homozygous allele) of ˜45-58% in the human population.
(§4) The EC50 value was determined from the dose response curve based on reference Compounds. Table 2a provides the results for IRF3 reporter induction THP1-Dual™ Human Monocytes cells and Table 2b provides the results for IRF3 reporter induction in THP1-Dual™ KI-hSTING-H232 Cells and THP1-Dual™ KI-hSTING-R232 Cells (“A” means <30 nM; “B” means ≥30 nM and <100 nM; “C” means ≥100 nM).

T1 sequence (Q86WV6 whole entry H232R): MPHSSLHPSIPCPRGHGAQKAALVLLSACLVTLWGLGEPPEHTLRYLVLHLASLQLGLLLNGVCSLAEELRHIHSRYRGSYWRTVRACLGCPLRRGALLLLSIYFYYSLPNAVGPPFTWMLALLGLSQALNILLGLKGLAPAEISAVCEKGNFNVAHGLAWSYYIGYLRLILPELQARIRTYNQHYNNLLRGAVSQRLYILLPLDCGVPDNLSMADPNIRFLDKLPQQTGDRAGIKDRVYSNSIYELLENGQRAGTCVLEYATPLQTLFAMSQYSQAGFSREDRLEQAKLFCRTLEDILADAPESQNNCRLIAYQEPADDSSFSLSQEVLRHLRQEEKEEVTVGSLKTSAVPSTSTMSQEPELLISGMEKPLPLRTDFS

SMILES	EC50 [µM]
CCc1nc(C)oc1C(=O)/N=c1\sc2cc(C(N)=O)cc(OC)c2n1C/C=C/Cn1c(NC(=O)c2oc(C)nc2CC)nc2cc(C(N)=O)cc(OCCCC(=O)O)c21 [compound 66]	< 0.03
CCc1nc(C)oc1C(=O)/N=c1\sc2cc(C(N)=O)cc(OCCCO)c2n1C/C=C/Cn1c(NC(=O)c2cc(C)nn2CC)nc2cc(C(N)=O)cnc21 [compound 148]	< 0.03
CCc1nc(C)oc1C(=O)/N=c1\sc2cc(C(N)=O)cc(OC)c2n1C/C=C/Cn1c(NC(=O)c2oc(C)nc2CC)nc2cc(C(N)=O)cc(OCCCO)c21 [compound 63]	< 0.03

Next, values leading:

EC50 [µM]	SMILES
< 0.03	CCc1nc(C)oc1C(=O)Nc1nc2cc(C(N)=O)cc(OC)c2n1C/C=C/Cn1c(NC(=O)c2oc(C)nc2CC)nc2cc(C(N)=O)cc(OCCCO)c21 [compound 9]
< 0.03	CCc1nc(C)oc1C(=O)/N=c1\sc2cc(C(N)=O)cnc2n1C/C=C/Cn1c(NC(=O)c2oc(C)nc2CC)nc2cc(C(N)=O)cc(OCCCO)c21 [compound 109]

Molecular target: T2, Human STING (Homo sapiens, UniProt Q86WV6, G230A/H232R/R293Q/R71H)
T2 construct: host or cells: THP1-Dual cells, digitonin-permeabilized
T2 sequence (Q86WV6 whole entry R71H/G230A/H232R/R293Q): as the sequence (Q86WV6 whole entry H232R) above, with R71H, G230A, R293Q counted along it
Test: Activation of human STING signaling in permeabilized THP1 cells, IRF3 induction
Assay type: cell-based
Conditions: THP1-Dual cells permeabilized with digitonin buffer 30 minutes on ice, then 24 h in RPMI media
Method: as §2
4×10^5 THP1-Dual™ cells (NF-κB-SEAP and IRF-Lucia luciferase Reporter Monocytes, Invivogen) were incubated with test Compounds in a 5-fold titration steps from […] in permeabilized buffer (50 mM HEPES pH 7.0, 100 mM KCl, 3 mM MgCl2, 85 mM sucrose, 0.2% BSA, 1 mM ATP, 0.1 mM GTP, 0.1 mM TTP, 1 μg/ml digitonin) for 30 minutes on ice. Cells were then washed and incubated in a fresh RPMI media with 10% FBS at 37° C. with 5% CO2 for 24 h. Cell culture supernatants from each sample were collected and NFkB and IRF3 were evaluated as above. Table 3 provides the results for IRF3 induction (“A” means <1 μM; “B” means ≥1 μM and <50 μM; “C” means ≥50 μM).

SMILES	EC50 [µM]
CCc1nc(C)oc1C(=O)/N=c1\sc2cc(C(N)=O)cc(OC)c2n1C/C=C/Cn1c(NC(=O)c2oc(C)nc2CC)nc2cc(C(N)=O)cc(OCCCC(=O)O)c21 [compound 66]	< 1
CCc1nc(C)oc1C(=O)/N=c1\sc2cc(C(N)=O)cc(OCCCO)c2n1C/C=C/Cn1c(NC(=O)c2cc(C)nn2CC)nc2cc(C(N)=O)cnc21 [compound 148]	< 1
CCc1nc(C)oc1C(=O)/N=c1\sc2cc(C(N)=O)cc(OC)c2n1C/C=C/Cn1c(NC(=O)c2oc(C)nc2CC)nc2cc(C(N)=O)cc(OCCCO)c21 [compound 63]	< 1

Next, values leading:

EC50 [µM]	SMILES
< 1	CCc1nc(C)oc1C(=O)Nc1nc2cc(C(N)=O)cc(OC)c2n1C/C=C/Cn1c(NC(=O)c2oc(C)nc2CC)nc2cc(C(N)=O)cc(OCCCO)c21 [compound 9]
< 1	CCc1nc(C)oc1C(=O)/N=c1\sc2cc(C(N)=O)cnc2n1C/C=C/Cn1c(NC(=O)c2oc(C)nc2CC)nc2cc(C(N)=O)cc(OCCCO)c21 [compound 109]

Molecular target: T3, Human STING (HAQ allele) (Homo sapiens, UniProt Q86WV6, G230A/H232R/R293Q/R71H)
T3 construct: THP1-Dual™ Human Monocytes cells with the homozygous HAQ allele; host or cells: THP1-Dual human monocytes
T3 sequence (Q86WV6 whole entry R71H/G230A/H232R/R293Q): as the sequence (Q86WV6 whole entry H232R) above, with R71H, G230A, R293Q counted along it
Test: IRF3 reporter induction in THP1-Dual Human Monocytes cells (homozygous HAQ STING allele)
Assay type: cell-based
Conditions: IRF3 reporter (secreted luciferase), 24 hours incubation
Method: as §1, §2, §4

SMILES	EC50 [µM]
CCc1nc(C)oc1C(=O)/N=c1\sc2cc(C(N)=O)cc(OC)c2n1C/C=C/Cn1c(NC(=O)c2oc(C)nc2CC)nc2cc(C(N)=O)cc(OCCCC(=O)O)c21 [compound 66]	≥ 0.1
CCc1nc(C)oc1C(=O)/N=c1\sc2cc(C(N)=O)cc(OCCCO)c2n1C/C=C/Cn1c(NC(=O)c2cc(C)nn2CC)nc2cc(C(N)=O)cnc21 [compound 148]	≥ 0.1
CCc1nc(C)oc1C(=O)/N=c1\sc2cc(C(N)=O)cc(OC)c2n1C/C=C/Cn1c(NC(=O)c2oc(C)nc2CC)nc2cc(C(N)=O)cc(OCCCO)c21 [compound 63]	≥ 0.1

The next lines start with the values.

EC50 [µM]	SMILES
0.03 to 0.1	CCc1nc(C)oc1C(=O)Nc1nc2cc(C(N)=O)cc(OC)c2n1C/C=C/Cn1c(NC(=O)c2oc(C)nc2CC)nc2cc(C(N)=O)cc(OCCCO)c21 [compound 9]
0.03 to 0.1	CCc1nc(C)oc1C(=O)/N=c1\sc2cc(C(N)=O)cnc2n1C/C=C/Cn1c(NC(=O)c2oc(C)nc2CC)nc2cc(C(N)=O)cc(OCCCO)c21 [compound 109]

Molecular target: T4, R232H human STING variant (Homo sapiens, UniProt Q86WV6)
T4 construct: host or cells: THP1-Dual KI-hSTING-H232 cells, generated from THP1-Dual KO-STING cells
T4 sequence (Q86WV6 whole entry, stated change not applied): as the sequence (Q86WV6 whole entry H232R) above, with R232H counted along it
Test: IRF3 reporter induction in THP1-Dual KI-hSTING-H232 Cells
Assay type: cell-based
Conditions: THP1-Dual KI-hSTING-H232 Cells (R232H Haplotype)
Method: as §1, §2, §3, §4

SMILES	EC50 [µM]
CCc1nc(C)oc1C(=O)/N=c1\sc2cc(C(N)=O)cc(OC)c2n1C/C=C/Cn1c(NC(=O)c2oc(C)nc2CC)nc2cc(C(N)=O)cc(OCCCC(=O)O)c21 [compound 66]	≥ 0.1
CCc1nc(C)oc1C(=O)/N=c1\sc2cc(C(N)=O)cc(OCCCO)c2n1C/C=C/Cn1c(NC(=O)c2cc(C)nn2CC)nc2cc(C(N)=O)cnc21 [compound 148]	< 0.03
CCc1nc(C)oc1C(=O)/N=c1\sc2cc(C(N)=O)cc(OC)c2n1C/C=C/Cn1c(NC(=O)c2oc(C)nc2CC)nc2cc(C(N)=O)cc(OCCCO)c21 [compound 63]	< 0.03

More lines, now with the values ahead:

EC50 [µM]	SMILES
< 0.03	CCc1nc(C)oc1C(=O)Nc1nc2cc(C(N)=O)cc(OC)c2n1C/C=C/Cn1c(NC(=O)c2oc(C)nc2CC)nc2cc(C(N)=O)cc(OCCCO)c21 [compound 9]
< 0.03	CCc1nc(C)oc1C(=O)/N=c1\sc2cc(C(N)=O)cnc2n1C/C=C/Cn1c(NC(=O)c2oc(C)nc2CC)nc2cc(C(N)=O)cc(OCCCO)c21 [compound 109]
